For one compound, half-life results are on record in patent US20230067378A1, “COMPOSITIONS AND METHODS FOR THE TREATMENT OF ESTROGEN-DEPENDENT DISORDERS” (ObsEva S.A., priority 2018, published 2023).

The nature of the data set: half-life in a human patient. The settings on record: in vivo, also the choline salt (VIa).

SMILES strings stand for the structures.

For `COc1cc(F)c(-n2c(=O)[nH]c3csc(C(=O)O)c3c2=O)cc1OCc1c(OC)ccc(F)c1F` [Compound (VI), 3-[2-fluoro-5-(2,3-difluoro-6-methoxybenzyloxy)4-methoxyphenyl]-2,4-dioxo-1,2,3,4-tetrahydrothieno [3,4d]pyrimidine-5-carboxylic acid], the half-life fell in the range of 14 to 15 h.
